“And” between values parts separate entries of the source, which are not always exact repeats. Identical values can stand only once.
Columns and labels:
[1] = Dye penetration study of mammary papilla, confocal and fluorescence microscopy; type: in vitro ADME, porcine; conditions: 12 hours treatment; 2 mm section from middle of papilla; confocal laser scanning microscopy
Method: For dye penetration studies, 10 mM of the dye sulforhodamine B (SRB) in 1:1 of ethanol:phosphate buffer and 0.32 mM of Nile Red (NR) in propylene glycol were applied on the mammary papillae for 12 hours. At the end of the study, the tissue was washed, cut into 2 mm thick sections as described earlier and placed on a glass slide for confocal microscopy study. Confocal images of mammary papilla were taken from approximately […] below the surface of the mammary papilla.
Mammary papillae were treated with each dye for 12 hours. Then, starting from tip, 2 mm thick sections of papillae were taken (FIG. 8). Section B was taken from middle of mammary papilla and studied with confocal laser scanning microscopy. From this 2 mm thick section, xy dimensional images were taken at different depths starting from 0 to 500 μm. Because xy views are taken at different depths (the dimension z), these are xyz images. The upper image is an xyz view after treatment with hydrophilic dye SRB. […] The xz views of the mammary papillae were also analyzed.
Fluorescence Microscopy. To verify the confocal data, cryo-sectioning of mammary papillae was performed after 12 hours treatment with the dyes. […] Sections from various different depths of the papilla and studied by fluorescence microscopy. […]

[2] = cited from earlier work
[3] = Transmammary permeation across porcine mammary papilla with and without removal of the keratin plug (Experiments 7-10); type: in vitro ADME
Excerpt: Keratin plug was removed from human and porcine mammary papilla using an alcoholic cotton swab. The swab was gently rubbed on the surface of the mammary papilla. The mammary papilla was observed under the microscope to confirm the removal of the plug from the surface and to confirm that epidermis of the mammary papilla was not damaged during this procedure.
The drug solutions were spiked with radioactive substances. […] Receptor medium was PBS with 7.4 pH.
(§1) Mammary papillae tissues were thawed. Keratin plugs were removed from the mammary papilla tissues using swabs with ethanol. […] The drug solutions were spiked with radioactive substances. […] Receptor medium was PBS with 7.4 pH.
as §1
Mammary papillae tissues were thawed. Keratin plugs were removed from the mammary papilla tissues using swabs with ethanol. […] The drug solutions were spike with radioactive substances. […] Receptor medium was PBS with 7.4 pH.

[4] = Transmammary permeation across human mammary papilla with and without removal of the keratin plug (Experiments 12-18); type: in vitro ADME; conditions: for lag time / cumulative amount permeated / Drug retention in tissue / Flux: value (SEM); for cumulative amount permeated: 48 hours; for Drug retention in tissue: end of 48 hours; for Increase in permeation across the tissues upon removal of the keratin plugs: human mammary papilla
Excerpt: Mammary papillae tissues were thawed. […] The drug solutions were spiked with radioactive substances. […] Receptor medium was PBS with 7.4 pH. […] Results may be seen in FIG. 37 and Table 13.
Mammary papillae tissues were thawed. […] The drug solutions were spiked with radioactive substances. […] Receptor medium was PBS with 7.4 pH. […] Results may be seen in FIG. 38 and Table 15.
Mammary papillae tissues were thawed. […] The drug solutions were spiked with radioactive substances. […] Receptor medium was PBS with 7.4 pH. […] Results may be seen in FIG. 39 and Table 17.
Mammary papillae tissues were thawed. […] The drug solutions were spiked with radioactive substances. […] Receptor medium was PBS with 7.4 pH. […] Results may be seen in FIG. 40.
Mammary papillae and skin tissues were thawed. […] The drug solutions were spiked with radioactive substances. […] Receptor medium was PBS with 7.4 pH. […] Results may be seen in FIG. 41 and Table 20.
Mammary papillae and skin tissues were thawed. […] The drug solutions were spiked with radioactive substances. […] Receptor medium was PBS with 7.4 pH. […] Results may be seen in FIG. 42 and Table 22.
Mammary papillae tissues were thawed. […] The drug solutions were spiked with radioactive substances. […] Receptor medium was PBS with 7.4 pH. […] Results may be seen in FIG. 43 and Table 24.

[5] = Permeation across human breast skin (Experiments 16-18); type: in vitro ADME
Excerpt: Mammary papillae and skin tissues were thawed. Keratin plugs were removed from the mammary papilla tissues using swabs with ethanol. […] The drug solutions were spiked with radioactive substances. […] Receptor medium was PBS with 7.4 pH. […] Results may be seen in FIG. 41 and Table 20.
Mammary papillae and skin tissues were thawed. Keratin plugs were removed from the mammary papilla tissues using swabs with ethanol. […] The drug solutions were spiked with radioactive substances. […] Receptor medium was PBS with 7.4 pH. […] Results may be seen in FIG. 42 and Table 22. […]

[6] = In vitro penetration and permeation via excised porcine mammary papilla, Franz diffusion cell (Example 1); type: in vitro ADME
Method: Drug penetration and permeation via mammary papillae was performed in a Franz diffusion cell using excised porcine mammary papilla. […] The transport studies were performed at time points for 6 and 48 hours.
In a separate study to evaluate the drug retention and disposition, the treatment was removed after 6 hours and the study was continued until the 48 hour mark. Samples were withdrawn from the receptor compartment at different time points. At the end of study, the mammary papilla was cut to 2 mm thick cylindrical sections from the top to the base of the tissue and was digested using a tissue solubilizer. The drug concentrations were determined by liquid scintillation counting.
Methods for the preparation of porcine mammary papilla. Freshly excised strips of porcine mammary papilla (6-7 months old animals) were washed with deionized water followed by removal of subcutaneous fatty tissue using a scalpel. Keeping the mammary papilla in the center, 3 cm×3 cm sized specimens of the tissue were excised, subcutaneous fat tissue was removed, and the tissue was frozen at −20° C. until used for the drug penetration and permeation studies.
Breast tissue was mounted between the two compartments of a vertical Franz diffusion cell (FDC) with breast tissue sandwiched between donor and receptor compartments. A mammary papilla was set in upright position inside the donor compartment of Franz diffusion cell. […] Samples were withdrawn from the receptor at different time points for 48 hours to determine drug concentration by radioactive count. At the end of 48 hours, tissue samples were taken for drug content determination. […]
In a second study, the mammary papillae in Franz diffusion cells were treated with the drugs for 48 hours and the permeation was followed through 48 hours. This analysis provided information regarding any saturation from drug treatment for extended periods of time. […]
Extraction of drugs from the mammary papilla. At the end of permeation study, the mammary papilla was removed from Franz diffusion cell and thoroughly washed with deionized water and blotted dried. Approximately 2 mm thick sections of the tissue were taken using a scalpel. These sections were homogenized, the drug was extracted, and the drug concentration was determined by radioactive counts.

[7] = dextran 10 mg/ml, human mammary papilla with keratin plug removal, *Values multiplied by 1000
[8] = dextran 10 mg/ml, human mammary papilla without keratin plug removal, *Values multiplied by 1000
[9] = excised porcine mammary papilla, saturated solution in ethanol:water (50:50), 48 h, mean ± SEM, n=3
[10] = porcine mammary papilla, end of 48 h, mean ± SEM, n=3
[11] = EST 15 mg/ml, human mammary papilla with keratin plug removal
[12] = EST 15 mg/ml, human mammary papilla without keratin plug removal
[13] = porcine mammary papilla after keratin plug removal, 48 hours, n=4
[14] = porcine mammary papilla after keratin plug removal, end of 48 hours
[15] = porcine mammary papilla after keratin plug removal, end of 48 hours, n=4

CCN(CC)c1ccc2c(-c3ccc(S(=O)(=O)O)cc3S(=O)(=O)[O-])c3ccc(=[N+](CC)CC)cc-3oc2c1 [SRB, sulforhodamine B]
Distribution of dye fluorescence in mammary papilla [1]: distribution of the dye in both the ducts and in the surrounding tissue | Log P [2]: −0.74

dextran
Increase in permeation upon removal of the keratin plugs ([3]; porcine mammary papilla, 10 mg/ml in 50:50 ethanol:water, 48 hours): approximately 2 folds | lag time ([4]; dextran 10 mg/ml in 50:50 ethanol:water, human mammary papilla with keratin plug removal): 9.63 (0.90) hours | cumulative amount permeated [4, 7]: 119.42 (19.35)* μmole | Drug retention in tissue [4, 7]: 789.33 (99.11)* umole/g of tissue | cumulative amount permeated [4, 8]: 16.54 (7.32)* μmole | Drug retention in tissue [4, 8]: 89.88 (19.26)* umole/g of tissue | lag time ([4]; dextran 10 mg/ml, human mammary papilla without keratin plug removal): 14.74 (1.41) hours | Increase in permeation across the tissues upon removal of the keratin plugs [4]: more than 7 fold | Penetration via human breast skin (in words) ([5]; 48 hrs treatment): no penetration of dextran even with 48 hrs treatment | lag time ([5]; dextran 10 mg/ml in 1:1 ethanol:water, human breast skin, value (SEM)): 30.15 (3.04) hours

CCN(CC)c1ccc2nc3c4ccccc4c(=O)cc-3oc2c1 [NR, Nile Red]
Distribution of dye fluorescence in mammary papilla [1]: observed only in and around the ducts | Log P [2]: 3.8

C[C@]12CC[C@@H]3c4ccc(O)cc4CC[C@H]3[C@@H]1CC[C@@H]2O [EST, estradiol]
Change of permeation upon removal of the keratin plugs (in words) ([3]; porcine mammary papilla, donor in 50:50 ethanol:water, 48 hours): increases significantly | Lag time ([6]; excised porcine mammary papilla, Franz diffusion cell, saturated solution in ethanol:water (50:50), 48 h, mean ± SEM, n=3): 7.07 ± 0.29 h | Cumulative % permeated [6, 9]: 1.03 ± 0.08% | Flux × 10^3 [6, 9]: 2.57 ± 0.15 μM · cm^2 · hr^−1 | Permeability coefficient × 10^3 [6, 9]: 0.05 ± 0.002 cm^2 · hr^−1 | cumulative amount permeated [6, 9]: 0.23 ± 0.02 µM | Cumulative % retained [6, 10]: 4.52 ± 0.59% | Drug extraction from 2 mm thick mammary papilla sections, Section A (tip) [6, 10]: 5.45 ± 0.49 µM/g | Drug extraction from 2 mm thick mammary papilla sections, Section B [6, 10]: 3.63 ± 0.26 µM/g | Drug extraction from 2 mm thick mammary papilla sections, Section C [6, 10]: 2.53 ± 0.31 µM/g | Drug extraction from 2 mm thick mammary papilla sections, Section D (base) [6, 10]: 1.55 ± 0.53 µM/g | Permeation across mammary papilla (in words) ([6]; porcine mammary papilla, treatment up to 48 hours): significant EST transport across the mammary papilla | lag time ([4]; EST 15 mg/ml in 50:50 ethanol:water, human mammary papilla with keratin plug removal): 2.08 (0.28) hours | cumulative amount permeated [4, 11]: 2.62 (0.97) μmole | Drug retention in tissue [4, 11]: 6.25 (2.12) umole/g of tissue | Flux [4, 11]: 0.09 (0.03) μmole/cm^2/hour | cumulative amount permeated [4, 12]: 0.58 (0.06) μmole | Drug retention in tissue [4, 12]: 1.06 (0.04) umole/g of tissue | Flux [4, 12]: 0.01 (0.00) μmole/cm^2/hour | lag time [4, 12]: 7.02 (0.94) hours | Permeation profile via human vs porcine mammary papillae ([4]; after keratin plug removal, 48 hours (Experiment 15)): similar | Increase in permeation across the tissues upon removal of the keratin plugs [4]: more than 10 fold | lag time ([5]; EST 15 mg/ml in 50:50 ethanol:water, human breast skin, value (SEM)): 0.56 (0.22) hours | cumulative amount permeated ([5]; EST 15 mg/ml, human breast skin, 48 hours, value (SEM)): 2.10 (0.16) μmole | Drug retention in tissue ([5]; EST 15 mg/ml, human breast skin, end of 48 hours, value (SEM)): 2.94 (0.30) umole/g of tissue | Flux ([5]; EST 15 mg/ml, human breast skin, value (SEM)): 0.07 (0.01) μmole/cm^2/hour | Log P [2]: 3.6

inulin
Transmammary flux ([3]; porcine mammary papilla): 0.33 μg/sq·cm/h | lag time ([3]; porcine mammary papilla after keratin plug removal, 10 mg/ml in 50:50 ethanol:water, n=4): 16.7 h and 16.78 h | Drug permeation (% of applied dose) [3, 13]: 0.37 % of applied dose | cumulative amt. permeated [3, 13]: 0.0037 µmol | Amount permeated across the tissue [3, 14]: 18.37 µg | Amount retaining into the tissue [3, 14]: 41.28 µg | Drug retention in tissue (% of applied dose) [3, 15]: 0.83 % of applied dose | Skin retention [3, 15]: 0.023 umole/g of tissue | Total drug retention in tissue [3, 15]: 0.0083 µmol | Flux ([3]; porcine mammary papilla after keratin plug removal, n=4): 0.000066 μmole/sq.cm/hr
